The text below walks through data of patent US8715751B2, “Artemisinins in the clinical and veterinary management of kinetoplastid infections” (The United States of America as Represented by the …, priority 2006, dated 2014).

Structures are written as SMILES. Values joined by “and” are separate entries in the source; they are usually repeats but may differ in a detail not shown here. Equal values may be shown once. Read-outs that look alike come from different tables or passages of the source.

One data set deals with Leishmania major lesions. Nature of the data set: In vivo testing in BALB/c mice, Leishmania footpad lesion. As to conditions: for Lesion Size (mm) Post-Rx: daily for one week, 9 days after commencement; for Lesion Size (mm) Pre-Rx: prior to dosing. As to the method: One foot pad was infected with infective Leishmania promastigotes while the other foot served as control. After the infected foot pads had developed lesions, mice with similar size lesions were selected and treated daily with test article for one week. The first doses were administered on 18 May. Lesions were measured with calipers prior to dosing and 9 days after commencement of treatment (27 May) and the difference in lesion size calculated. The thickness of the uninfected footpad was also measured. […] Test articles were administered orally and intra-peritoneally (ip).

In data set [1] the test system is Leishmania major ATCC 50122 amastigotes. The data set is described as follows: In vitro amastigote/macrophage culture drug screening. The format is cell-based. As to conditions: added once.
The test system is the same in data set [2]. The data set is described as above. In kind it is cell-based. The conditions noted are these: for effectiveness ranking of the compounds in the screen: 2.0 μM initial screen. As to the method: Preliminary drug screening (in vitro amastigote/macrophage culture) of artemisinin and artelinic acid compounds.
The four compounds were dissolved in the respective solvents as indicated in the table below (Table 1) and were tested against Leishmania major ATCC 50122 amastigotes in vitro in a mouse macrophage system. A positive (Pentostam) and negative (culture medium) controls were set for each plate. Compounds were tested at 2.0 μM in a total volume of 2-0 mls. Drug was added to well every 4 hours×1, 2 and 3, and results shown in (Table 2) below.
Because of the high potency of Artelinic acid relative to the other compounds, the experiments were repeated with different doses of Artelinic acid alone.

A further data set relates to HeLa S3 cells. The data set is described as follows: Cytotoxicity assay in vitro (MTT). In kind it is cell-based, human. As to conditions: 1 μg/mL. As to the method:
An axenic culture of human carcinoma HeLa S3 cell line was established in Dulbecco's Modified Eagle's Medium (D-MEM, Sigma) supplemented with 4500 mg glucose/L, L-glutamine, NaHCO3, and pyridoxine HCl, to which 10% heat-inactivated (56° C., 40 min) fetal bovine serum (FBS, MultiSer) was added. Plant chromatographic fractions, which have shown potent trypanocidal activity in vitro, were selected for cytotoxicity assay. Previously dissolved in neat DMSO (Wako-for biochemical assay), an aliquot of 10 μL of each test sample was diluted in 490 μL of the cell culture medium with the intent of decreasing the DMSO concentration to 2% in the medium. HeLa S3 cells maintained in culture dish (Sumilon) were washed with Dulbecco's phosphate saline buffer (-) [DPBS (-), Nissui Pharmaceutical Co., Ltd] after syphonating the culture medium. Adherent cells were released from their dish bottom substrate by adding trypsin (Nacalai) and gently tapping with hand on the round lateral side of the dish. […] After shaking ([…]) for 3-5 min, the absorbance in each well was measured at 540 nm in a microtiter plate reader (ImmunoMini NJ-2300). The percentage of cytotoxicity (growth inhibition level) was calculated as (A-B)/A×100, where A is the mean optical density of negative control wells and B is the mean optical density of test sample wells.

Data set [3] deals with Trypanosoma brucei brucei. Nature of the data set: In vitro trypanocidal assay (microscopic viability, bloodstream forms). The format is cell-based. As to conditions: 1 μg/mL, 24-hr incubation, read-out: growth inhibition against T. b. brucei. As to the method:
Culture suspension of Trypanosoma brucei brucei (T. b. brucei) was obtained from Research Institute for Microbial Diseases (Osaka University, Japan). Trypanosomes were subcultured in appropriate medium (see 5.1.2) as frequently as needed to avoid overgrowth, and maintained in culture flasks at 37° C. in a humidified, 5% CO2 atmosphere incubator. In addition, parasite culture stabilates were prepared by suspending trypanosomes centrifugation (1500 rpm, room temperature, 3 min) pellet in 1 mL of a mixture of […] (v/v) trypanosome dilution buffer and 33% (v/v) glycerol. The whole volume was transferred into cryotubes and stored at −80° C. until further needed. […]
All fractions obtained stepwise in the course of the separation process of the plant crude extracts were assessed for their in vitro activity against T. b. brucei. […] Trypanosomes were harvested at late exponential growth level, counted with a hemocytometer (Erma Tokyo 7059), and resuspended by appropriate dilution in culture medium for achieving a final density of 1×10^4 cells/mL. […] After successively 24, 48, and 72 hr-incubations, parasites viability was determined by observing directly inside the wells of the microculture plate with an optical microscope (Injectoscope model IMT-YF/Olympus). […]

The conditions of data set [4]: cited from earlier work.

Regarding `C[C@H]1[C@@H](OCc2ccc(C(=O)O)cc2)O[C@@H]2O[C@@]3(C)CC[C@H]4[C@H](C)CC[C@@H]1[C@@]24OO3` [Artelinic acid, artelinic acid], in the data set with Leishmania major lesions (4 ul/Kg, IP), the “Lesion Size (mm) Post-Rx” value is 2.1 mm and 2.2 mm and 2.0 mm. For the same molecule, the “Lesion Size (mm) Pre-Rx” value in the data set on Leishmania major lesions (4 ul/Kg, IP) is 2.6 mm and 2.5 mm; with Leishmania major lesions (4 ul/Kg, Oral) it was 2.7 mm and 2.8 mm. Further, the “effectiveness compared with Pentostam, the positive control” value with Leishmania major lesions (at the doses and route of administration tested) is reported as “much more effective than Pentostam”. The “effect on size of Leishmania major footpad lesions” value in the data set with Leishmania major lesions (given orally or ip for one week) is “decrease in the size of Leishmania major lesions”. The “observation on Leishmania amastigotes” value in data set [1] (0.25 μM) was “Cleared all the Leishmania amastigotes”; in data set [1] (0.5 μM), “Cleared all the parasites in the cytoplasm”; in data set [1] (1.0 μM), “All the amastigotes were cleared from the macrophages”; in data set [2] (2.0 μM, added once), “All the leishmania amastigotes were cleared”. In data set [2], the “killing of / potency against Leishmania parasites within mouse macrophages in vitro” value is recorded as “marked potency”. The “effectiveness ranking of the compounds in the screen” value (from here on “effectiveness ranking”) in data set [2] is given as “Artelinic acid>>>Dihydroartemisinin>Beta Arteether>>Artemisinin”. Further, the “clearance of amastigotes in macrophages” value in data set [2] (2 uM, initial screen) is reported as “cleared all of the amastigates in macrophages”. Besides, the “lowest concentration at which killing of intracellular amastigotes was noted” value in data set [2] (dose response, added once) turned out to be 0.1 µM. Moreover, in data set [2] (dose response, added once), the “lowest dose at which clearance was complete” value was 0.25 µM.
The inhibition is the share of the control response that was lost under treatment. Consider `C[C@@H]1CC[C@H]2[C@@H](C)C(=O)O[C@@H]3O[C@@]4(C)CC[C@@H]1[C@]32OO4` [Artemisinin, (+)-artemisinin], for which the “cytotoxic level in vitro” value in the data set with HeLa S3 cells was determined as 17.3%. In data set [3], the inhibition at 1 µg/mL was not below 80%. Also, in data set [2], the “killing of / potency against Leishmania parasites within mouse macrophages in vitro” value was “results were duplicated” and the “effectiveness ranking” value was “Artelinic acid>>>Dihydroartemisinin>Beta Arteether>>Artemisinin”. The parasites per macrophage result in data set [2] (2.0 μM, compound added q4 h × 1) is “between 4-7”.
Turning to `CCO[C@H]1O[C@@H]2O[C@@]3(C)CC[C@H]4[C@H](C)CC[C@@H]([C@H]1C)[C@@]24OO3` [Beta Arteether, Beta-Arteether], the “effectiveness ranking” value in data set [2] was “Artelinic acid>>>Dihydroartemisinin>Beta Arteether>>Artemisinin”.
Consider `Nc1nc(N)nc(Nc2ccc([As]3SCC(CO)S3)cc2)n1` (stereo not drawn) [Melarsoprol], for which the oral bioavailability result in data set [4] (po) is listed as “no oral bioavailability”.
In the case of `N=C(N)c1ccc(OCCCCCOc2ccc(C(=N)N)cc2)cc1` [Pentamidine], the oral bioavailability entry in data set [4] is given as “no oral bioavailability”.
Consider `O.O.O.O.O.O.O.O.O.O=C([O-])[C@@H]1[O][Sb](=[O])([O][Sb]2(=[O])[O][C@H]([C@H](O)CO)[C@H](O)[C@H](C(=O)[O-])[O]2)[O][C@H]([C@H](O)CO)[C@@H]1O.[Na+].[Na+].[Na+]` (stereo partly drawn) [Pentostam], for which, in the data set on Leishmania major lesions (20 mg/Kg, IP), the “Lesion Size (mm) Post-Rx” value is 2.3 mm and 3.0 mm and 2.7 mm; the “Lesion Size (mm) Pre-Rx” value was 2.8 mm and 2.6 mm. Besides, in the data set on Leishmania major lesions (20 mg/Kg, Oral), the “Lesion Size (mm) Post-Rx” value is 2.6 mm and 2.9 mm; the “Lesion Size (mm) Pre-Rx” value was 2.8 mm and 2.7 mm.
`Cc1ccc(C(=O)Nc2ccc(S(=O)(=O)O)c3cc(S(=O)(=O)O)cc(S(=O)(=O)O)c23)cc1NC(=O)c1cccc(NC(=O)Nc2cccc(C(=O)Nc3cc(C(=O)Nc4ccc(S(=O)(=O)O)c5cc(S(=O)(=O)O)cc(S(=O)(=O)O)c45)ccc3C)c2)c1` [Suramin]: the oral bioavailability entry in data set [4] is “no oral bioavailability”.
